Laboratory results from patent US6525059B1, “Substituted pyrazoles as p38 kinase inhibitors” (G. D. Searle & Company, priority 1998, dated 2003).

Key:
human p38 kinase alpha = molecular target: T1, human p38 kinase alpha (Homo sapiens, UniProt Q16539); experiment: p38 kinase in vitro assay, phosphorylation of biotinylated PHAS-I with gamma 32P-ATP; assay type: biochemical; details: read-out: P38 alpha kinase IC50
T1 construct: The coding region of the human p38a cDNA was obtained by PCR-amplification from RNA isolated from the human monocyte cell line THP.1; GST (N); made in house; host or cells: E. coli DH10B
Method in brief: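 Radiometric filter-capture read-out: streptavidin plates trap biotin-PHAS-I labelled by activated (MKK6) human p38α from γ-32P-ATP. Buffer 25 mM HEPES pH 7.5, 10 mM magnesium acetate, 50 μM cold ATP; reactions 1 h or overnight at 30 °C; inhibitors 10-fold dilutions 100 to 0.001 μM, triplicates, 1% DMSO.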

TNF-α = experiment: LPS stimulation of TNF production by U937 cells; assay type: cell-based, human; details: for inhibition at 1 µM / IC50: Homo sapiens; for inhibition at 1 µM: U-937, @ 1.0 uM, read-out: U937 Cell % inhib @ conc.; for IC50: U-937, TNF production, LPS-stimulated human U937 cells, read-out: U937 Cell IC50
Method in brief: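 PMA-differentiated human U937 cells (20 ng/ml PMA, 24 h, then 24-48 h rest) at 2 million cells/ml, 0.1% DMSO final, stimulated with E. coli LPS (100 ng/ml final) for 4 h at 37° C. TNF-α in medium measured by ELISA; IC50 in μM.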

T1 sequence (Q16539 whole entry): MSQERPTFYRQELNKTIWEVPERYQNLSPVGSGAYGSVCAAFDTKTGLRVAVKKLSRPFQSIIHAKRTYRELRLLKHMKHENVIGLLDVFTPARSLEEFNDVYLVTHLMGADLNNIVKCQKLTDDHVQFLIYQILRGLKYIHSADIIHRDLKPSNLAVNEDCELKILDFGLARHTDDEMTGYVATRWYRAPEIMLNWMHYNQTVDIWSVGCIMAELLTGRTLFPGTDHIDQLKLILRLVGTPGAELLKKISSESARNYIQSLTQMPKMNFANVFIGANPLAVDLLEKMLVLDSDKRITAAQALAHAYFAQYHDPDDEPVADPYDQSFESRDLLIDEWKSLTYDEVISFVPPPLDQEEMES

IC50 (human p38 kinase alpha) [µM] | IC50 (TNF-α) [µM] | SMILES | inhibition at 1 µM (TNF-α) [%] | U937 Cell % inhib @ conc. (TNF-α; @ 1.0 uM) [% @ 1.0 uM]
0.48 |  | Cc1ccccc1C(=O)NCc1[nH]nc(-c2ccc(F)cc2)c1-c1ccncc1 [Example B-0267] | 11 | 
3.39 |  | O=C(NCc1[nH]nc(-c2ccc(F)cc2)c1-c1ccncc1)c1ccc(Cl)cc1 [Example B-0268] | 19 | 
9.81 |  | Cc1ccc(C(=O)NCc2[nH]nc(-c3ccc(F)cc3)c2-c2ccncc2)cc1 [Example B-0269] | 19 | 
5.79 |  | O=C(NCc1[nH]nc(-c2ccc(F)cc2)c1-c1ccncc1)c1cccc(C(F)(F)F)c1 [Example B-0270] | 13 | 
7.55 |  | O=C(NCc1[nH]nc(-c2ccc(F)cc2)c1-c1ccncc1)c1cc2ccccc2s1 [Example B-0271] | 12 | 
1.81 |  | CC(C)c1cc(C(C)C)c(C(=O)NCc2[nH]nc(-c3ccc(F)cc3)c2-c2ccncc2)c(C(C)C)c1 [Example B-0272] | 48 | 
5.03 |  | O=C(NCc1[nH]nc(-c2ccc(F)cc2)c1-c1ccncc1)c1cc(Cl)cc(Cl)c1 [Example B-0273] | 13 | 
2.68 |  | N#Cc1cccc(C(=O)NCc2[nH]nc(-c3ccc(F)cc3)c2-c2ccncc2)c1 [Example B-0274] | 25 | 
2.67 |  | O=C(NCc1[nH]nc(-c2ccc(F)cc2)c1-c1ccncc1)c1cccc2ccccc12 [Example B-0275] | 33 | 
1.25 |  | O=C(NCc1[nH]nc(-c2ccc(F)cc2)c1-c1ccncc1)c1ccc(F)c(F)c1 [Example B-0276] | 26 | 
0.68 |  | O=C(NCc1[nH]nc(-c2ccc(F)cc2)c1-c1ccncc1)c1cc(F)cc(F)c1 [Example B-0277] | 34 | 
1.26 |  | O=C(NCc1[nH]nc(-c2ccc(F)cc2)c1-c1ccncc1)c1c(F)ccc(F)c1F [Example B-0278] | 36 | 
1.39 |  | O=C(NCc1[nH]nc(-c2ccc(F)cc2)c1-c1ccncc1)c1cccc(Cl)c1Cl [Example B-0279] | 33 | 
7.37 |  | O=C(NCc1[nH]nc(-c2ccc(F)cc2)c1-c1ccncc1)c1cc(C(F)(F)F)ccc1F [Example B-0281] | 24 | 
0.083 |  | O=C(NCc1[nH]nc(-c2ccc(F)cc2)c1-c1ccncc1)c1c(F)cccc1C(F)(F)F [Example B-0284] | 65 | 
4.57 |  | O=C(NCc1[nH]nc(-c2ccc(F)cc2)c1-c1ccncc1)c1cccc(C(F)(F)F)c1F [Example B-0285] | 29 | 
0.33 |  | O=C(NCc1[nH]nc(-c2ccc(F)cc2)c1-c1ccncc1)c1ccc(F)cc1C(F)(F)F [Example B-0286] | 50 | 
4 |  | O=C(NCc1[nH]nc(-c2ccc(F)cc2)c1-c1ccncc1)c1ccc(F)c(C(F)(F)F)c1 [Example B-0287] | 22 | 
4.46 |  | O=C(NCc1[nH]nc(-c2ccc(F)cc2)c1-c1ccncc1)c1cc(F)cc(C(F)(F)F)c1 [Example B-0288] | 26 | 

IC50 (human p38 kinase alpha) [µM] | IC50 (TNF-α) [µM] | SMILES | inhibition at 1 µM (TNF-α) [%] | U937 Cell % inhib @ conc. (TNF-α; @ 1.0 uM) [% @ 1.0 uM]
0.15 |  | O=C(NCc1[nH]nc(-c2ccc(F)cc2)c1-c1ccncc1)c1ccccc1Cl [Example B-0289] | 55 | 
1.33 |  | O=C(NCc1[nH]nc(-c2ccc(F)cc2)c1-c1ccncc1)c1ccc(Cl)cc1Cl [Example B-0291] | 20 | 
8.03 |  | O=C(NCc1[nH]nc(-c2ccc(F)cc2)c1-c1ccncc1)c1cc(F)c(F)cc1F [Example B-0296] | 36 | 
0.58 |  | O=C(NCc1[nH]nc(-c2ccc(F)cc2)c1-c1ccncc1)c1c(F)cccc1F [Example B-0298] | 48 | 
0.87 |  | O=C(NCc1[nH]nc(-c2ccc(F)cc2)c1-c1ccncc1)c1ccc(F)cc1F [Example B-0299] | 54 | 
0.78 |  | O=C(NCc1[nH]nc(-c2ccc(F)cc2)c1-c1ccncc1)c1cccc(Cl)c1 [Example B-0300] | 32 | 
0.19 |  | O=C(NCc1[nH]nc(-c2ccc(F)cc2)c1-c1ccncc1)c1ccccc1Br [Example B-0301] | 50 | 
4.02 |  | O=C(NCc1[nH]nc(-c2ccc(F)cc2)c1-c1ccncc1)c1ccc(C(F)(F)F)cc1 [Example B-0302] | 24 | 
0.75 |  | CC(C)C(=O)N[C@H](C)c1[nH]nc(-c2ccc(F)cc2)c1-c1ccncc1 [Example B-0355] | 40 | 
1.46 | 0.66 | C=CCOC(=O)N[C@H](C)c1[nH]nc(-c2ccc(F)cc2)c1-c1ccncc1 [Example B-0357] |  | 
0.37 |  | CC(=O)OC(C)(C)C(=O)N[C@H](C)c1[nH]nc(-c2ccc(F)cc2)c1-c1ccncc1 [Example B-0358] | 17 | 
1.6 |  | C[C@@H](NC(=O)C1CCC1)c1[nH]nc(-c2ccc(F)cc2)c1-c1ccncc1 [Example B-0360] | 19 | 
0.52 |  | C[C@@H](NC(=O)c1cccc(Br)c1)c1[nH]nc(-c2ccc(F)cc2)c1-c1ccncc1 [Example B-0362] | 27 | 
4.67 |  | C[C@@H](NC(=O)c1ccc(I)cc1)c1[nH]nc(-c2ccc(F)cc2)c1-c1ccncc1 [Example B-0363] | 25 | 
1.44 |  | C[C@@H](NC(=O)c1ccno1)c1[nH]nc(-c2ccc(F)cc2)c1-c1ccncc1 [Example B-0364] | 27 | 
0.96 |  | CC(=O)O[C@@H](C)C(=O)N[C@H](C)c1[nH]nc(-c2ccc(F)cc2)c1-c1ccncc1 [Example B-0365] | 27 | 
1 |  | COc1ccccc1C(=O)N[C@H](C)c1[nH]nc(-c2ccc(F)cc2)c1-c1ccncc1 [Example B-0367] | 23 | 
0.65 |  | CC(C)=CC(=O)N[C@H](C)c1[nH]nc(-c2ccc(F)cc2)c1-c1ccncc1 [Example B-0370] | 28 | 
0.35 |  | COc1ccc(CC(=O)N[C@H](C)c2[nH]nc(-c3ccc(F)cc3)c2-c2ccncc2)cc1 [Example B-0372] | 29 | 

IC50 (human p38 kinase alpha) [µM] | IC50 (TNF-α) [µM] | SMILES | inhibition at 1 µM (TNF-α) [%] | U937 Cell % inhib @ conc. (TNF-α; @ 1.0 uM) [% @ 1.0 uM]
0.45 |  | COc1cccc(CC(=O)N[C@H](C)c2[nH]nc(-c3ccc(F)cc3)c2-c2ccncc2)c1 [Example B-0373] | 18 | 
1.38 |  | Cc1ccc(C(=O)N[C@H](C)c2[nH]nc(-c3ccc(F)cc3)c2-c2ccncc2)cc1 [Example B-0374] |  | 12.0
1 |  | C[C@@H](NC(=O)c1ccccc1)c1[nH]nc(-c2ccc(F)cc2)c1-c1ccncc1 [Example B-0375] | 19 | 
2.99 |  | C[C@@H](NC(=O)C1CCCC1)c1[nH]nc(-c2ccc(F)cc2)c1-c1ccncc1 [Example B-0376] | 12 | 
1.29 |  | C[C@@H](NC(=O)c1cccnc1)c1[nH]nc(-c2ccc(F)cc2)c1-c1ccncc1 [Example B-0377] | 36 | 
0.41 |  | CC(C)COC(=O)N[C@H](C)c1[nH]nc(-c2ccc(F)cc2)c1-c1ccncc1 [Example B-0382] | 32 | 
1.43 |  | Cc1ccc(S(=O)(=O)N[C@@H](Cc2ccccc2)C(=O)N[C@H](C)c2[nH]nc(-c3ccc(F)cc3)c2-c2ccncc2)cc1 [Example B-0383] | 10 | 
0.41 |  | CC(C)S(=O)(=O)N[C@H](C)c1[nH]nc(-c2ccc(F)cc2)c1-c1ccncc1 [Example B-0387] | 52 | 
0.089 |  | C[C@@H](NS(=O)(=O)c1ccc(F)cc1F)c1[nH]nc(-c2ccc(F)cc2)c1-c1ccncc1 [Example B-0390] | 55 | 
0.86 |  | C[C@@H](NS(=O)(=O)C(F)(F)F)c1[nH]nc(-c2ccc(F)cc2)c1-c1ccncc1 [Example B-0391] | 18 | 
0.087 |  | CCS(=O)(=O)N[C@H](C)c1[nH]nc(-c2ccc(F)cc2)c1-c1ccncc1 [Example B-0395] | 48 | 
0.097 | 0.44 | C[C@@H](NS(C)(=O)=O)c1[nH]nc(-c2ccc(F)cc2)c1-c1ccncc1 [Example B-0396] |  | 
0.14 |  | Cc1ccc(S(=O)(=O)N[C@H](C)c2[nH]nc(-c3ccc(F)cc3)c2-c2ccncc2)cc1 [Example B-0399] | 39 | 
0.16 |  | COc1ccc(S(=O)(=O)N[C@H](C)c2[nH]nc(-c3ccc(F)cc3)c2-c2ccncc2)cc1OC [Example B-0400] | 25 | 
0.46 |  | CC(C)NC(=O)N[C@H](C)c1[nH]nc(-c2ccc(F)cc2)c1-c1ccncc1 [Example B-0401] | 52 | 
0.14 | 1.51 | C[C@@H](NC(N)=O)c1[nH]nc(-c2ccc(F)cc2)c1-c1ccncc1 [Example B-0402] |  | 
1.77 | 2.42 | C[C@@H](NC(=O)NCc1ccccc1)c1[nH]nc(-c2ccc(F)cc2)c1-c1ccncc1 [Example B-0403] |  | 
0.31 |  | C[C@@H](NC(=O)N1CCCC1)c1[nH]nc(-c2ccc(F)cc2)c1-c1ccncc1 [Example B-0404] | 48 | 
0.79 |  | C[C@@H](NC(=O)N1CCOCC1)c1[nH]nc(-c2ccc(F)cc2)c1-c1ccncc1 [Example B-0405] | 30 | 
